Assay results reported in PubChem BioAssay AID248 (DTP/NCI, 2004).
Toxic doses and inconclusive results are not listed. No stated cut-off is given here; in the data, active means T/C of 150% or more; inactive means T/C below 125%.

System: L1210 leukemia ip in BDF1 mice, survival T/C
Experiment: NCI In Vivo Anticancer Drug Screen. Data for tumor model L1210 Leukemia (intraperitoneal) in B6D2F1 (BDF1) mice
Details: endpoint: mean survival time, higher = longer survival
Procedure, shortened: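 Antitumor effect is assessed in tumor-bearing animals. Survival in the compound arm is compared with a vehicle-dosed control arm and expressed as their quotient.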

[1] = dose: 12.5 mg/kg/injection, schedule: Q01DX009 (ip), vehicle: Klucel (hydroxypropylcellulose) (HPC)
[2] = dose: 25.0 mg/kg/injection, schedule: Q01DX009 (ip), vehicle: Klucel (hydroxypropylcellulose) (HPC)
[3] = dose: 100.0 mg/kg/injection, schedule: Q01DX009 (ip), vehicle: Klucel (hydroxypropylcellulose) (HPC)
[4] = dose: 100.0 mg/kg/injection, schedule: Q04DX003 (ip), vehicle: Klucel (hydroxypropylcellulose) (HPC)
[5] = dose: 200.0 mg/kg/injection, schedule: Q01DX009 (ip), vehicle: Klucel (hydroxypropylcellulose) (HPC)
[6] = dose: 200.0 mg/kg/injection, schedule: Q04DX003 (ip), vehicle: Klucel (hydroxypropylcellulose) (HPC)
[7] = dose: 400.0 mg/kg/injection, schedule: Q01DX009 (ip), vehicle: Klucel (hydroxypropylcellulose) (HPC)
[8] = dose: 400.0 mg/kg/injection, schedule: Q04DX003 (ip), vehicle: Klucel (hydroxypropylcellulose) (HPC)
[9] = dose: 100.0 mg/kg/injection, schedule: Q04DX003 (ip), vehicle: other
[10] = dose: 200.0 mg/kg/injection, schedule: Q04DX003 (ip), vehicle: other
[11] = dose: 400.0 mg/kg/injection, schedule: Q04DX003 (ip), vehicle: other

Measured: T/C

COc1ccc(C(=O)Nc2ccccc2)cc1N
inactive: dose: 50.0 mg/kg/injection, schedule: Q01DX009 (ip), vehicle: carboxymethylcellulose (CMC) 96 % of control | dose: 100.0 mg/kg/injection, schedule: Q01DX009 (ip), vehicle: carboxymethylcellulose (CMC) 103 % of control | dose: 200.0 mg/kg/injection, schedule: Q01DX009 (ip), vehicle: carboxymethylcellulose (CMC) 94 % of control | dose: 400.0 mg/kg/injection, schedule: Q01DX001 (ip), vehicle: carboxymethylcellulose (CMC) 120 % of control | dose: 400.0 mg/kg/injection, schedule: Q01DX009 (ip), vehicle: carboxymethylcellulose (CMC) 100 % of control | dose: 600.0 mg/kg/injection, schedule: Q01DX001 (ip), vehicle: carboxymethylcellulose (CMC) 114 % of control | dose: 800.0 mg/kg/injection, schedule: Q01DX001 (ip), vehicle: carboxymethylcellulose (CMC) 118 % of control | dose: 1000.0 mg/kg/injection, schedule: Q01DX001 (ip), vehicle: carboxymethylcellulose (CMC) 114 % of control

O=S(=O)(CBr)CBr
inactive: dose: 100.0 mg/kg/injection, schedule: Q01DX001 (ip), vehicle: saline 98 % of control | dose: 200.0 mg/kg/injection, schedule: Q01DX001 (ip), vehicle: saline 95 % of control | dose: 400.0 mg/kg/injection, schedule: Q01DX001 (ip), vehicle: saline 112 % of control

CCOC(=O)/C(C#N)=C\c1ccc(OCC)c(OCC)c1
inactive: dose: 100.0 mg/kg/injection, schedule: Q01DX Z (ip), vehicle: methylcellulose (MC) 101 % of control | dose: 200.0 mg/kg/injection, schedule: Q01DX Z (ip), vehicle: methylcellulose (MC) 100 % of control

C[C@H](OC(=O)CCl)[C@@H](C)OC(=O)CCl
inactive: dose: 50.0 mg/kg/injection, schedule: Q01DX001 (sc), vehicle: carboxymethylcellulose (CMC) 109 % of control | dose: 100.0 mg/kg/injection, schedule: Q01DX001 (sc), vehicle: carboxymethylcellulose (CMC) 88 % of control

CN(C)C(=O)C1(c2ccc(Cl)cc2)CCN(CCCC(=O)c2ccc(F)cc2)CC1
inactive: [1] 94 % of control | [2] 94 % of control | dose: 25.0 mg/kg/injection, schedule: Q04DX003 (ip), vehicle: Klucel (hydroxypropylcellulose) (HPC) 121 % of control | dose: 50.0 mg/kg/injection, schedule: Q01DX009 (ip), vehicle: Klucel (hydroxypropylcellulose) (HPC) 100 % of control | dose: 50.0 mg/kg/injection, schedule: Q04DX003 (ip), vehicle: Klucel (hydroxypropylcellulose) (HPC) 106 % of control | [3] 111 % of control | [4] 116 % of control | [5] 96 % of control | [6] 116 % of control

O=S(=O)(OCC#CCOS(=O)(=O)c1cccs1)c1cccs1
inactive: dose: 6.2 mg/kg/injection, schedule: Q01DX009 (ip), vehicle: Klucel (hydroxypropylcellulose) (HPC) 101 % of control | [1] 111 % of control | [2] 105 % of control | dose: 100.0 mg/kg/injection, schedule: Q01DX001 (ip), vehicle: Klucel (hydroxypropylcellulose) (HPC) 109 % of control | [4] 97 % of control | dose: 200.0 mg/kg/injection, schedule: Q01DX001 (ip), vehicle: Klucel (hydroxypropylcellulose) (HPC) 106 % of control | [6] 105 % of control | dose: 400.0 mg/kg/injection, schedule: Q01DX001 (ip), vehicle: Klucel (hydroxypropylcellulose) (HPC) 103 % of control

ON(Cc1ccccc1)Cc1ccccc1
inactive: [3] 98 % of control | [4] 103 % of control | [5] 107 % of control | [6] 102 % of control | [7] 98 % of control | [8] 100 % of control

COc1ccc(NC(=O)ON(C)C)cc1
inactive: dose: 100.0 mg/kg/injection, schedule: Q04DX002 (ip), vehicle: DMSO 111 % of control | dose: 200.0 mg/kg/injection, schedule: Q04DX002 (ip), vehicle: DMSO 108 % of control | dose: 400.0 mg/kg/injection, schedule: Q04DX002 (ip), vehicle: DMSO 101 % of control

Cc1nc(Cl)cc(Cl)c1C
inactive: [9] 106 % of control | dose: 178.0 mg/kg/injection, schedule: Q04DX003 (ip), vehicle: other 103 % of control | [10] 104 % of control | dose: 266.0 mg/kg/injection, schedule: Q04DX003 (ip), vehicle: other 103 % of control | [11] 89 % of control

O=C(O)c1c(Cl)c(Cl)cc(Cl)c1Cl
inactive: dose: 75.0 mg/kg/injection, schedule: Q01DX001 (ip), vehicle: saline 93 % of control | dose: 150.0 mg/kg/injection, schedule: Q01DX001 (ip), vehicle: saline 93 % of control | dose: 300.0 mg/kg/injection, schedule: Q01DX001 (ip), vehicle: saline 96 % of control

COc1cc2c(cc1OC)C(=O)N(C)CC2
inactive: dose: 100.0 mg/kg/injection, schedule: Q01DX009 (ip), vehicle: water 95 % of control | dose: 100.0 mg/kg/injection, schedule: Q04DX003 (ip), vehicle: water 97 % of control | dose: 200.0 mg/kg/injection, schedule: Q01DX009 (ip), vehicle: water 102 % of control | dose: 200.0 mg/kg/injection, schedule: Q04DX003 (ip), vehicle: water 97 % of control | dose: 400.0 mg/kg/injection, schedule: Q04DX003 (ip), vehicle: water 100 % of control

CCCCc1c(C)nc(N)nc1N
inactive: dose: 3.12 mg/kg/injection, schedule: Q01DX001 (ip), vehicle: Klucel (hydroxypropylcellulose) (HPC) 105 % of control | dose: 6.25 mg/kg/injection, schedule: Q01DX001 (ip), vehicle: Klucel (hydroxypropylcellulose) (HPC) 110 % of control | dose: 12.5 mg/kg/injection, schedule: Q01DX001 (ip), vehicle: Klucel (hydroxypropylcellulose) (HPC) 111 % of control | dose: 25.0 mg/kg/injection, schedule: Q01DX001 (ip), vehicle: saline 98 % of control

COc1ccc(CCNC(=O)Cc2ccccc2[N+](=O)[O-])cc1OC
inactive: dose: 10.0 mg/kg/injection, schedule: Q01DX001 (ip), vehicle: carboxymethylcellulose (CMC) 100 % of control | dose: 20.0 mg/kg/injection, schedule: Q01DX001 (ip), vehicle: carboxymethylcellulose (CMC) 100 % of control | dose: 40.0 mg/kg/injection, schedule: Q01DX001 (ip), vehicle: carboxymethylcellulose (CMC) 96 % of control | dose: 80.0 mg/kg/injection, schedule: Q01DX001 (ip), vehicle: carboxymethylcellulose (CMC) 96 % of control

CCCCCNC(=O)CCC
inactive: [3] 108 % of control | [4] 96 % of control | [5] 108 % of control | [6] 107 % of control | [7] 106 % of control | [8] 95 % of control

O=S(=O)(OCC1CC2C=CC1C2)c1ccc(Br)cc1 (stereo not given)
inactive: [9] 86 % of control | [10] 89 % of control | [11] 89 % of control

CCOC(=O)CNCc1cccc(Br)c1
inactive: dose: 50.0 mg/kg/injection, schedule: Q01DX005 (ip), vehicle: saline 98 % of control | dose: 100.0 mg/kg/injection, schedule: Q01DX005 (ip), vehicle: saline 112 % of control | dose: 200.0 mg/kg/injection, schedule: Q01DX005 (ip), vehicle: saline 102 % of control | dose: 400.0 mg/kg/injection, schedule: Q01DX005 (ip), vehicle: saline 100 % of control

CCOC(=O)C(=O)C(C#N)c1cccc2ccccc12 (stereo not given)
inactive: [4] 100 % of control | [6] 96 % of control

CC(N)(CO)C(=O)O (stereo not given)
inactive: dose: 100.0 mg/kg/injection, schedule: Q01DX009 (ip), vehicle: saline 100 % of control | dose: 200.0 mg/kg/injection, schedule: Q01DX009 (ip), vehicle: saline 105 % of control | dose: 400.0 mg/kg/injection, schedule: Q01DX009 (ip), vehicle: saline 107 % of control
